According to ChEMBL document CHEMBL3507680, “University of Dundee, Gates Library screen for HepG2 cell viability”:

Assay: Human HepG2 cell viability assay in 384 well format
Type: toxicity, cell-based
Parameters: dose 125 nL, time 70.5 hour; cytotoxicity at 70.5 h: concentration not given beside the values
Conditions: HepG2 cells, read-out: Inhibition

Cc1ccc(=O)n(Cc2nc(C(C)OCC(C)C)no2)n1 (configuration not stated)
cytotoxicity at 70.5 h: 3.26%

CC(C)(NS(C)(=O)=O)C(=O)NCc1cccc(Br)c1
cytotoxicity at 70.5 h: -7.07%

COCCNC(=O)N1CCN(C(C)C(=O)NC2CCCC2)CC1 (configuration not stated)
cytotoxicity at 70.5 h: -5.61%

CCC(CC)c1cc(C(=O)N2CCN(C(C)C(N)=O)CC2)on1 (configuration not stated)
cytotoxicity at 70.5 h: -7.02%

CCOc1nnc(CN2CCCC(c3nc4ccccc4[nH]3)C2)s1 (configuration not stated)
cytotoxicity at 70.5 h: -3.56%

CN(CC(=O)Nc1cc(-n2nnnc2C2CC2)ccc1F)C1CCC1
cytotoxicity at 70.5 h: -8.29%

CN1CCOC(C(=O)Nc2nc(-c3ccc4c(c3)CCC4)n[nH]2)C1 (configuration not stated)
cytotoxicity at 70.5 h: -6.75%

CC(Cc1ccco1)NS(=O)(=O)N1CCCCCC1 (configuration not stated)
cytotoxicity at 70.5 h: -8.2%

CC(CN1CCCC1=O)NC(=O)Nc1ccccc1Cn1cccn1 (configuration not stated)
cytotoxicity at 70.5 h: -5.84%

CC(CN1CCCC1=O)NC(=O)Nc1cccnc1-n1cccn1 (configuration not stated)
cytotoxicity at 70.5 h: 35.4%

Cc1cc(-n2c(C)cn(CN(C)C3CCS(=O)(=O)C3)c2=O)no1 (configuration not stated)
cytotoxicity at 70.5 h: -14.6%

COC(=O)[C@H](C)NC(=O)c1nc(C2CC2)n(-c2ccccc2Cl)n1
cytotoxicity at 70.5 h: -11.3%

CN(C)C(=O)CNC(=O)c1nc(C2CC2)n(-c2ccccc2Cl)n1
cytotoxicity at 70.5 h: -13.7%

Cc1ccc(C2CSCCN2C(=O)c2cccnc2)cc1 (configuration not stated)
cytotoxicity at 70.5 h: -9.38%

CNC(=O)Cc1ccc(NC(=O)NC2(c3cccc(F)c3)CC2)cc1
cytotoxicity at 70.5 h: -3.37%

CC(O)CCN(C)C(=O)Nc1ccc(Br)cc1 (configuration not stated)
cytotoxicity at 70.5 h: 26.9%

CCC(C)(C)C(=O)Nc1ccc2ccn(CC(=O)NC)c2c1
cytotoxicity at 70.5 h: -0.594%

CNC(=O)Cn1ccc2ccc(NC(=O)C(C)C)cc21
cytotoxicity at 70.5 h: -16.4%

COc1ccc(-n2cc(CNC(=O)c3ccccn3)nn2)cc1
cytotoxicity at 70.5 h: -8.76%

CN(CC(O)C1CC1)C(=O)Nc1cc(F)cc(Br)c1 (configuration not stated)
cytotoxicity at 70.5 h: 26.3%

CNC(=O)Cn1ccc2ccc(NC(=O)NC(C)C(C)C)cc21 (configuration not stated)
cytotoxicity at 70.5 h: -9.08%

O=S1(=O)CCN(CCCc2ccc(Cl)cc2)CC1
cytotoxicity at 70.5 h: -6.76%

CNC(=O)C(C)CN(C)C(=O)Nc1cc(F)cc(Br)c1 (configuration not stated)
cytotoxicity at 70.5 h: 1.41%

Clc1ccc(C(CNCc2ccncc2)n2cccn2)cc1 (configuration not stated)
cytotoxicity at 70.5 h: -1.54%

CC(CN1CCCC1=O)NC(=O)NCc1ccccc1-n1cccn1 (configuration not stated)
cytotoxicity at 70.5 h: -11.4%

CC(=O)Nc1ccc(SCC(O)COCc2ccccc2)cc1 (configuration not stated)
cytotoxicity at 70.5 h: -12.4%

OCCN(Cc1ccno1)Cc1cc(Br)ccc1F
cytotoxicity at 70.5 h: -14.1%

CCOCC1CCN(C(=O)C(c2c(F)cccc2F)N(C)C)CC1 (configuration not stated)
cytotoxicity at 70.5 h: 0.534%

O=C1CC[C@H](C(=O)N(CCc2ccccc2)C2CCOC2)N1 (some centres not stated)
cytotoxicity at 70.5 h: 24.8%

OCCOCCN1CCCC1c1cccc(Cl)c1 (configuration not stated)
cytotoxicity at 70.5 h: -3.17%

CC(NC1(CNS(=O)(=O)N(C)C)CCCC1)c1ccccc1 (configuration not stated)
cytotoxicity at 70.5 h: -13.2%

CC(SCCC(=O)NC(N)=O)c1ccccc1F (configuration not stated)
cytotoxicity at 70.5 h: -7.35%

CC(SCCC(=O)NC(N)=O)c1ccc(F)cc1F (configuration not stated)
cytotoxicity at 70.5 h: -14.8%

CCCC1CCCN(C(=O)CNC(=O)c2ccoc2C)CC1 (configuration not stated)
cytotoxicity at 70.5 h: -18.9%

CC(C)c1noc(CCC(=O)NCC(c2ccco2)N2CCCC2)n1 (configuration not stated)
cytotoxicity at 70.5 h: -7.17%

Cc1ccc(-c2nnc(NC(=O)c3ccn(C)c(=O)c3)[nH]2)s1
cytotoxicity at 70.5 h: -19.1%

CC(=O)N1Cc2ccccc2C[C@H]1C(=O)N(C)CCc1ccccn1
cytotoxicity at 70.5 h: 19.3%

O=C(C1CCS(=O)(=O)C1)N1CCC(=Cc2cccc(F)c2)CC1 (configuration not stated)
cytotoxicity at 70.5 h: -9.56%

CCC(C)(O)CNC(=O)Nc1ccc(C)cc1Br (configuration not stated)
cytotoxicity at 70.5 h: -5.82%

N#Cc1cccc(CS(=O)(=O)NC(Cc2ccccc2)C(N)=O)c1 (configuration not stated)
cytotoxicity at 70.5 h: -13.1%

CCn1cc(C(=O)N(C)Cc2c(F)cccc2Cl)cn1
cytotoxicity at 70.5 h: -2.9%

Cc1nc(-c2ccc(S(=O)(=O)N3CCSC3)cc2)co1
cytotoxicity at 70.5 h: -10.2%

COc1ccc(S(=O)(=O)NC(=O)c2cscn2)cc1C
cytotoxicity at 70.5 h: -13.6%

CN1CCCC(N(C)C(=O)c2ccc(NC(=O)c3cc[nH]n3)cc2)C1 (configuration not stated)
cytotoxicity at 70.5 h: -0.159%

CC(CNC(=O)CCc1ccccn1)c1ccsc1 (configuration not stated)
cytotoxicity at 70.5 h: -16.6%

Cc1ccc(C(=O)N2CCOCC2)cc1NCc1ccsc1
cytotoxicity at 70.5 h: -12.3%

Cc1ccc(C2CN(C(=O)NCc3nnc4ccccn34)CCO2)o1 (configuration not stated)
cytotoxicity at 70.5 h: -10.6%
